Structures are written as SMILES. pIC50: −log10 of the molar value. Bounds are passed on as bounds.

This note sets out measurements from patent US11919902B2, “Aryl-bipyridine amine derivatives as phosphatidylinositol phosphate kinase inhibitors” (HiberCell, Inc., priority 2017, dated 2024).

One test deals with T1, GST tagged PIP4KtypeIIA (Homo sapiens, UniProt P48426).
T1 construct: made in house; host or cells: E. coli
T1 sequence (P48426 1-406): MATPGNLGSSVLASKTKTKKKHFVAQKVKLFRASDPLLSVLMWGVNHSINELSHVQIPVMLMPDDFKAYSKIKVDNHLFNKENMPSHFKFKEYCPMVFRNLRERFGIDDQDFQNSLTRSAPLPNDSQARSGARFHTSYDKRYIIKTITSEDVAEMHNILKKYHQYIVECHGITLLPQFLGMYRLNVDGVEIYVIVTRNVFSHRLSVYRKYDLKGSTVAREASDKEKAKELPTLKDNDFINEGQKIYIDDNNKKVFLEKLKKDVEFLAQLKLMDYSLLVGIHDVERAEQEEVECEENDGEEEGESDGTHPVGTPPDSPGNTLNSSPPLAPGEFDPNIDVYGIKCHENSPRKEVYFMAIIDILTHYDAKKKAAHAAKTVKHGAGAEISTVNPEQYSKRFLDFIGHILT
Briefly: ADP-glo kinase assay PIP4K 2A (PIP4KtypeIIA inhibition assay). The test is classed as biochemical. The following applies: Table 3; compounds listed under IC50 range headings; 10 uM ATP, 0.5 nM PIP4KIIA. The method, boiled down: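 E. coli-expressed GST-PIP4KtypeIIA (0.5 nM final) was preincubated 1 h at 27 °C with compound (up to 4.8 μM, 5% DMSO) in PI5P/DOPE lipid in 50 mM HEPES pH 7.3 with 10 mM MgCl2. The reaction was started with 10 μM ATP (final) and run 1 h. ADP was read by ADP-Glo luminescence via a calibration curve, and IC50 was taken from % residual activity.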
Background: ADP-Glo turns the ADP formed in a reaction into a luminescent signal.

Test [1] concerns the target T2, PIP4K2A (full length protein, SignalChem) (Homo sapiens, UniProt P48426).
T2 construct: 4 nM PIP4K2A (full length protein, SignalChem); purchased SignalChem
T2 sequence (P48426 1-406): T1 sequence (P48426 1-406)
Briefly: Kinase Assay PIP4K2 A (Sprint); ADP-Glo biochemical assay. The following applies: Table 2; compounds listed under IC50 range headings. The method, boiled down:
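Compounds (10-point, 3-fold dilutions) were pre-incubated 15 min at RT with an enzyme/substrate mix of 4 nM full-length PIP4K2A and 100 μM PI(5)P diC8 in 20 mM MOPS pH 7.2, 25 mM MgCl2, 0.005% Tween 20. A 60 μM ATP solution was added, reaction 1 h RT; ADP read by ADP-Glo luminescence, IC50 fitted from % inhibition vs DMSO.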

Another test deals with T3, GST tagged PIP4KtypeIIB (Homo sapiens, UniProt P78356).
T3 construct: made in house; host or cells: E. coli
T3 sequence (P78356 1-416): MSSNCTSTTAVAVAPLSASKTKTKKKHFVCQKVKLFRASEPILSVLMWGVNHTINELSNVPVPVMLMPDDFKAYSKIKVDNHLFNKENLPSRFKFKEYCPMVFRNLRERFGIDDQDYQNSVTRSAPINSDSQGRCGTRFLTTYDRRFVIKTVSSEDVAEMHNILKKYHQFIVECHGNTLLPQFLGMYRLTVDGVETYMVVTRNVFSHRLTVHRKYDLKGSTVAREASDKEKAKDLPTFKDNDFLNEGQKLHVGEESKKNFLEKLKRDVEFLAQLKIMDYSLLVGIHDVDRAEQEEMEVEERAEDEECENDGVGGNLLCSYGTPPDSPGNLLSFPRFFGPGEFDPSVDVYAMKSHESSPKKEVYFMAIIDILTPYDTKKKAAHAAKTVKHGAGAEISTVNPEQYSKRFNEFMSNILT
Briefly: Trans-FI P kinase assay PIP4K2B (PIP4KtypeIIB inhibition assay). The format is biochemical. The following applies: Table 4; compounds listed under IC50 range headings; 100 uM GTP, 5 nM PIP4KIIB; read-out: Trans-FI P kinase assays: PIP4K2B IC50. The method, boiled down: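 Purified GST-PIP4KIIB (5 nM final), 1 h preincubation with compound at 27 C, then 2 h reaction with 100 uM GTP and 80 uM PI5P plus DOPE carrier lipid in pH 7.3 HEPES/MgCl2/Triton buffer with 5% DMSO. GDP read by Transcreener FI fluorescence against a calibration curve; IC50 from % no-inhibitor activity vs log concentration.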

As for `CN(C)C(=O)c1ccc(-c2cc(-c3cnc4c(c3)c(-c3cncs3)cn4C)cnc2N)nc1` [Example 125, 2′-amino-N,N-dimethyl-5′-(1-methyl-3-(thiazol-5-yl)-1H-pyrrolo[2,3-b]pyridin-5-yl)-[2,3′-bipyridine]-5-carboxamide], the negative logarithm of the IC50 (pIC50) is 8.00 to 9.00 on GST tagged PIP4KtypeIIA, 6.00 to 7.00 in test [1] and 5.30 to 5.60 at GST tagged PIP4KtypeIIB.
On the same counts, the results for `CN(C)C(=O)c1ccc(-c2cncc(-c3ccnc4c3ccn4C)c2)cc1` [Example 5, N,N-dimethyl-4-(5-(1-methyl-1H-pyrrolo[2,3-b]pyridin-4-yl)pyridin-3-yl)benzamide] are 5.30 to 5.60, 6.00 to 7.00 and 5.60 to 6.00.
On the same counts, the results for `O=C1NCCn2c1cc1c(-c3cncc(-c4ccc(N5CCCC5=O)cc4)c3)ccnc12` [Example 45, 4-(5-(4-(2-oxopyrrolidin-1-yl)phenyl)pyridin-3-yl)-8,9-dihydropyrido[3′,2′:4,5]pyrrolo[1,2-a]pyrazin-6(7H)-one] are 6.00 to 7.00, 7.00 to 8.30 and 7.00 to 8.00.
On the same counts, the results for `CN(C)C(=O)c1ccc(-c2cc(-c3cc(Nc4cccc(N)c4)ncn3)cnc2N)nc1` [Example 216, 2′-amino-5′-(6-((3-aminophenyl)amino)pyrimidin-4-yl)-N,N-dimethyl-[2,3′-bipyridine]-5-carboxamide] are 6.00 to 7.00, 6.00 to 7.00 and 6.00 to 7.00.
Consider `COCCNC(=O)c1cc2c(-c3cnc(N)c(-c4ccc(C(=O)N(C)C)cn4)c3)ccnc2[nH]1` [Example 132, 4-(2′-amino-5-(dimethylcarbamoyl)-[2,3′-bipyridin]-5′-yl)-N-(2-methoxyethyl)-1H-pyrrolo[2,3-b]pyridine-2-carboxamide], for which the negative-log IC50 (pIC50) is 6.00 to 7.00 on GST tagged PIP4KtypeIIA, 6.00 to 7.00 in test [1] and 7.00 to 8.00 at GST tagged PIP4KtypeIIB.
Turning to `Cc1cnc2[nH]cc(-c3cncc(-c4ccc(N5CCCC5=O)cc4)c3)c2c1` [Example 31, 1-(4-(5-(5-methyl-1H-pyrrolo[2,3-b]pyridin-3-yl)pyridin-3-yl)phenyl)pyrrolidin-2-one], the negative-log IC50 (pIC50) against GST tagged PIP4KtypeIIA was 7.00 to 8.00; in test [1], 7.00 to 8.30; on GST tagged PIP4KtypeIIB, 6.00 to 7.00.
For `CC(C)n1cnnc1-c1ccc(-c2cncc(-c3ccnc4c3cc3n4CCN(C)C3=O)c2)cc1` [Example 384, 4-(5-(4-(4-isopropyl-4H-1,2,4-triazol-3-yl)phenyl)pyridin-3-yl)-7-methyl-8,9-dihydropyrido[3′,2′:4,5]pyrrolo[1,2-a]pyrazin-6(7H)-one], the pIC50 on GST tagged PIP4KtypeIIA is 6.00 to 7.00; in test [1], 6.00 to 7.00; at GST tagged PIP4KtypeIIB it was 7.00 to 8.00.
On to `CN(C)C(=O)c1ccc(-c2cc(-c3ccnc(CNC(=O)c4ccc(N)cc4)c3)cnc2N)nc1` [Example 188, 2′-amino-2″-((4-aminobenzamido)methyl)-N,N-dimethyl-[2,3′:5′,4″-terpyridine]-5-carboxamide], for which the values for the negative-log IC50 (pIC50) (against GST tagged PIP4KtypeIIA; in test [1]; at GST tagged PIP4KtypeIIB) were < 5.30, 5.60 to 6.00 and 5.60 to 6.00, respectively.
Regarding `CN(C)C(=O)c1ccc(-c2cc(-c3ccnc4[nH]ccc34)cnc2N)nc1` [Example 21, 2′-amino-N,N-dimethyl-5′-(1H-pyrrolo[2,3-b]pyridin-4-yl)-[2,3′-bipyridine]-5-carboxamide], the negative-log IC50 (pIC50) (against GST tagged PIP4KtypeIIA; in test [1]; on GST tagged PIP4KtypeIIB) was 6.00 to 7.00 each time.
In the case of `O=C1Cc2c(-c3cncc(-c4ccc(N5CCCC5=O)cc4)c3)ccnc2N1` [Example 42, 4-(5-(4-(2-oxopyrrolidin-1-yl)phenyl)pyridin-3-yl)-1,3-dihydro-2H-pyrrolo[2,3-b]pyridin-2-one], the negative logarithm of the IC50 (pIC50) was 5.30 to 5.60 against GST tagged PIP4KtypeIIA, 6.00 to 7.00 in test [1] and 5.60 to 6.00 at GST tagged PIP4KtypeIIB.
As to `Cn1cc(-c2cnc(N)c(-c3ccc(N4CCCC4=O)cc3)c2)c2cccnc21` [Example 87, 1-(4-(2-amino-5-(1-methyl-1H-pyrrolo[2,3-b]pyridin-3-yl)pyridin-3-yl)phenyl)pyrrolidin-2-one], the results for the negative-log IC50 (pIC50) (at GST tagged PIP4KtypeIIA; in test [1]; on GST tagged PIP4KtypeIIB) were 6.00 to 7.00, 7.00 to 8.30 and 6.00 to 7.00, respectively.
For the compound `CN1CCn2c(cc3c(-c4cncc(-c5ccc(N6CCCCCC6=O)cc5)c4)ccnc32)C1=O` [Example 345, 7-methyl-4-(5-(4-(2-oxoazepan-1-yl)phenyl)pyridin-3-yl)-8,9-dihydropyrido[3′,2′:4,5]pyrrolo[1,2-a]pyrazin-6(7H)-one], the pIC50 on GST tagged PIP4KtypeIIA was 6.00 to 7.00; in test [1], 6.00 to 7.00; on GST tagged PIP4KtypeIIB it was 7.00 to 8.00.
With `CN(C)C(=O)c1ccc(-c2cc(-c3ccnc(CNC(=O)c4ccc(NC(=O)OC(C)(C)C)cc4)c3)cnc2N)nc1` [Example 187, tert-butyl(4-(((2′-amino-5-(dimethylcarbamoyl)-[2,3′:5′,4″-terpyridin]-2″-yl)methyl)carbamoyl)phenyl)carbamate], the pIC50 against GST tagged PIP4KtypeIIA was < 5.30; in test [1] it was 5.30 to 5.60; on GST tagged PIP4KtypeIIB it was < 5.30.
As for `CN(C)C(=O)c1ccc(-c2cc(-c3ccnc4cccc(C#N)c34)cnc2N)nc1` [Example 118, 2′-amino-5′-(5-cyanoquinolin-4-yl)-N,N-dimethyl-[2,3′-bipyridine]-5-carboxamide], the values for the negative logarithm of the IC50 (pIC50) (against GST tagged PIP4KtypeIIA; in test [1]; at GST tagged PIP4KtypeIIB) were < 5.30, > 5.30 and < 5.30, respectively.
Take `O=C1CCCN1c1ccc(-c2cncc(-c3ccnc4c3cnn4CCO)c2)cc1` [Example 44, 1-(4-(5-(1-(2-hydroxyethyl)-1H-pyrazolo[3,4-b]pyridin-4-yl)pyridin-3-yl)phenyl)pyrrolidin-2-one]: the pIC50 (at GST tagged PIP4KtypeIIA; in test [1]; on GST tagged PIP4KtypeIIB) was 6.00 to 7.00 in each case.
Take `CN(C)C(=O)c1ccc(-c2cncc(-c3c[nH]c4ncc(Cl)cc34)c2)cc1` [Example 12, 4-(5-(5-chloro-1H-pyrrolo[2,3-b]pyridin-3-yl)pyridin-3-yl)-N,N-dimethylbenzamide]: the figures for the pIC50 (on GST tagged PIP4KtypeIIA; in test [1]; at GST tagged PIP4KtypeIIB) were 6.00 to 7.00, 7.00 to 8.30 and 6.00 to 7.00, respectively.
As for `CN(C)C(=O)c1ccc(-c2cc(-c3ccnc4cc(N(C)C)ccc34)cnc2N)nc1` [Example 110, 2′-amino-5′-(7-(dimethylamino)quinolin-4-yl)-N,N-dimethyl-[2,3′-bipyridine]-5-carboxamide], the pIC50 (against GST tagged PIP4KtypeIIA; in test [1]; at GST tagged PIP4KtypeIIB) was 6.00 to 7.00 throughout.
`Cn1cc2c(-c3cncc(-c4ccc(N5CCCC5=O)cc4)c3)c[nH]c(=O)c2n1` [Example 159, 2-methyl-4-(5-(4-(2-oxopyrrolidin-1-yl)phenyl)pyridin-3-yl)-2,6-dihydro-7H-pyrazolo[3,4-c]pyridin-7-one]: the pIC50 on GST tagged PIP4KtypeIIA is 6.00 to 7.00; in test [1] it was 7.00 to 8.30; on GST tagged PIP4KtypeIIB, 6.00 to 7.00.
As to `O=C1CCCN1c1ccc(-c2cncc(-c3cn(CC4CCOCC4)c(=O)c4[nH]ncc34)c2)cc1` [Example 69, 4-(5-(4-(2-oxopyrrolidin-1-yl)phenyl)pyridin-3-yl)-6-((tetrahydro-2H-pyran-4-yl)methyl)-1,6-dihydro-7H-pyrazolo[3,4-c]pyridin-7-one], the pIC50 against GST tagged PIP4KtypeIIA was 5.60 to 6.00; in test [1] it was 7.00 to 8.30; at GST tagged PIP4KtypeIIB, 6.00 to 7.00.
As to `Nc1ncc(-c2c[nH]c3ncc(Cl)cc23)cc1-c1ccc(N2CCCC2=O)cn1` [Example 26, 1-(2′-amino-5′-(5-chloro-1H-pyrrolo[2,3-b]pyridin-3-yl)-[2,3′-bipyridin]-5-yl)pyrrolidin-2-one], the pIC50 at GST tagged PIP4KtypeIIA was 7.00 to 8.00; in test [1], 7.00 to 8.30; at GST tagged PIP4KtypeIIB it was 6.00 to 7.00.

The pIC50 is the IC50 on a negative log10 scale, so that one unit is a factor of ten.
